Tests used:
Assay in all cases: relative viability (nuclei count vs DMSO), 5 days (fraction); higher = more cells survive
Bleomycin + Tozasertib = compound: CC1=C(N=C(N=C1N)[C@H](CC(=O)N)NC[C@@H](C(=O)N)N)C(=O)N[C@@H]([C@H](C2=CN=CN2)OC3C(C(C(C(O3)CO)O)O)OC4C(C(C(C(O4)CO)O)OC(=O)N)O)C(=O)N[C@H](C)[C@H]([C@H](C)C(=O)N[C@@H]([C@@H](C)O)C(=O)NCCC5=NC(=CS5)C6=NC(=CS6)C(=O)NCCC[S+](C)C)O [Bleomycin] + Cc1cc(Nc2cc(N3CCN(C)CC3)nc(Sc3ccc(NC(=O)C4CC4)cc3)n2)n[nH]1 [Tozasertib] (partner 0.1 µM); settings: main component drawn
In short: (§1)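 Relative viability equals treated-well nuclei counts divided by vehicle-well nuclei counts. Counts came from 4× images of lung cancer cell lines grown in 1536-well plates for 5 days after pin-tool dosing on the day after seeding. Dosing used one drug alone or a fixed anchor-drug dose plus five library-drug doses (not always all listed) in √10 steps, and values are medians of duplicate plates.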

Bleomycin + Phenformin = compound: CC1=C(N=C(N=C1N)[C@H](CC(=O)N)NC[C@@H](C(=O)N)N)C(=O)N[C@@H]([C@H](C2=CN=CN2)OC3C(C(C(C(O3)CO)O)O)OC4C(C(C(C(O4)CO)O)OC(=O)N)O)C(=O)N[C@H](C)[C@H]([C@H](C)C(=O)N[C@@H]([C@@H](C)O)C(=O)NCCC5=NC(=CS5)C6=NC(=CS6)C(=O)NCCC[S+](C)C)O [Bleomycin] + N=C(N)NC(=N)NCCc1ccccc1 [Phenformin] (partner 250 µM); settings: main component drawn
In short: as §1

Etoposide + Bortezomib = compound: COc1cc([C@@H]2c3cc4c(cc3[C@@H](O[C@@H]3O[C@@H]5CO[C@@H](C)O[C@H]5[C@H](O)[C@H]3O)[C@H]3COC(=O)[C@H]23)OCO4)cc(OC)c1O [Etoposide] + CC(C)C[C@H](NC(=O)[C@H](Cc1ccccc1)NC(=O)c1cnccn1)B(O)O [Bortezomib] (partner 0.002 µM)
In short: as §1

Etoposide + Lapatinib = compound: COc1cc([C@@H]2c3cc4c(cc3[C@@H](O[C@@H]3O[C@@H]5CO[C@@H](C)O[C@H]5[C@H](O)[C@H]3O)[C@H]3COC(=O)[C@H]23)OCO4)cc(OC)c1O [Etoposide] + CS(=O)(=O)CCNCc1ccc(-c2ccc3ncnc(Nc4ccc(OCc5cccc(F)c5)c(Cl)c4)c3c2)o1 [Lapatinib] (partner 2 µM)
In short: as §1

Cell Line | relative viability (Bleomycin + Tozasertib; first compound 0.01 µM) | relative viability (Bleomycin + Tozasertib; first compound 0.03162 µM) | relative viability (Bleomycin + Tozasertib; first compound 0.1 µM) | relative viability (Bleomycin + Tozasertib; first compound 0.3162 µM) | relative viability (Bleomycin + Tozasertib; first compound 1 µM) | relative viability (Bleomycin + Phenformin; first compound 0.01 µM) | relative viability (Bleomycin + Phenformin; first compound 0.03162 µM) | relative viability (Bleomycin + Phenformin; first compound 0.1 µM) | relative viability (Bleomycin + Phenformin; first compound 0.3162 µM) | relative viability (Bleomycin + Phenformin; first compound 1 µM) | relative viability (Etoposide + Bortezomib; first compound 0.01 µM) | relative viability (Etoposide + Bortezomib; first compound 0.03162 µM) | relative viability (Etoposide + Bortezomib; first compound 0.1 µM) | relative viability (Etoposide + Bortezomib; first compound 0.3162 µM) | relative viability (Etoposide + Bortezomib; first compound 1 µM) | relative viability (Etoposide + Lapatinib; first compound 0.01 µM) | relative viability (Etoposide + Lapatinib; first compound 0.03162 µM) | relative viability (Etoposide + Lapatinib; first compound 0.1 µM) | relative viability (Etoposide + Lapatinib; first compound 0.3162 µM) | relative viability (Etoposide + Lapatinib; first compound 1 µM)
HARA | 0.0994 | 0.118 | 0.107 | 0.1 | 0.081 | 0.432 | 0.503 | 0.493 | 0.361 | 0.178 | 1.04 | 1.29 | 1.11 | 0.995 | 0.235 | 0.591 | 0.811 | 0.675 | 0.56 | 0.134
IA-LM |  |  |  |  |  |  |  |  |  |  | 0.821 | 0.929 | 0.466 | 0.837 | 0.522 | 0.704 | 0.614 | 0.78 | 0.666 | 0.301
LCLC-103H | 0.427 | 0.479 | 0.476 | 0.279 | 0.234 | 0.329 | 0.333 | 0.294 | 0.274 | 0.223 | 1.1 | 1.24 | 0.93 | 0.956 | 0.978 |  |  |  |  | 
LK-2 | 0.178 | 0.159 | 0.179 | 0.179 | 0.177 | 0.289 | 0.281 | 0.304 | 0.23 | 0.16 |  |  |  |  |  | 0.949 | 1.23 | 0.566 | 0.555 | 0.217
NCI-H358 | 0.103 | 0.101 | 0.0984 | 0.106 | 0.11 | 0.343 | 0.352 | 0.325 | 0.171 | 0.147 |  |  |  |  |  | 0.507 | 0.437 | 0.369 | 0.268 | 0.152
NCI-H441 | 0.53 | 0.611 | 0.471 | 0.332 | 0.275 | 0.782 | 0.906 | 0.807 | 0.376 | 0.292 | 0.457 | 0.469 | 0.447 | 0.286 | 0.177 |  |  |  |  | 
NCI-H522 | 0.538 | 0.542 | 0.504 | 0.418 | 0.346 | 0.561 | 0.585 | 0.493 | 0.363 | 0.416 |  |  |  |  |  |  |  |  |  | 
NCI-H1299 |  |  |  |  |  |  |  |  |  |  | 1.03 | 0.999 | 1.11 | 0.957 | 0.821 | 0.952 | 0.983 | 1.03 | 0.776 | 0.817
NCI-H1395 | 0.646 | 0.695 | 0.619 | 0.407 | 0.404 | 0.404 | 0.411 | 0.456 | 0.325 | 0.351 |  |  |  |  |  | 0.907 | 1.09 | 0.969 | 0.836 | 0.74

— the supplement of paper PMC10307832
